# In US20050222036A1, “Peptide compositions with effects on blood glucose” (priority 2000, published 2005):
# Marks after values point to notes of the source that are not given here.
# Assays:
# rats [1] = assay: Elevated plus maze test (anxiogenic effects); type: in vivo, rat; parameters: TIME Open Arm / TIME Closed Arm: unit not given here
# Experimental: (§1) The elevated plus maze consists of two open and two closed arms; time spent and the number of entries into open arms are indicators of neophobic anxiety in rats. The number of entries and total time spent in the open arms were tabulated over 5 min by an observer blind to the experimental condition. Animals falling off the apparatus were eliminated from the study. For the intracerebroventricular (i.c.v.) studies, rats were implanted with a cannula (22 gauge, Plastics One, Roanoke, Va.) into the left ventricle (AP 0.8 mm, ML 1.6 mm, DV 3.5 mm from dura) then allowed at least 3-4 days to recover. The peptides were infused in a total volume of 2 μl (1 μl min −1) 25 min before training with two trials per day for 5 days. The visual platform test was conducted after the last training trial on day 5 in a different location of the pool.
# rats [2] = assay: Contextual fear conditioning in rats; type: in vivo, rat; conditions: vs naïve and EGFP controls
# Experimental: Fear conditioning was performed in a modified apparatus (MED Associates Inc., St. Albans, Vt.) housed in a sound attenuated cubicle. […] The animal was placed in the chamber and the occurrence of freezing behavior measured every 10 sec for 2 min before a shock was administered (rats, […], 2 sec; mice, 0.5 mA, 5 sec). Freezing behavior was measured again (for 5 min) the next day. The apparatus was cleaned with 1% acetic acid following conditioning of each animal.
# To determine whether increasing GLP-1R levels in the hippocampus would enhance learning, rAAV vectors expressing control EGFP vector and GLP-1R were generated and injected into the hippocampus of rats. See Example 1(vi) for protocol. Three weeks following vector injection, robust hippocampal expression was obtained (data not shown) with transgene mRNA expression in the principal cell groups of the hippocampus. […] See Example 1 (vii) for protocol. A separate group of rats treated in the same manner was trained twice daily for 5 days in the MWM. […] The decrease in latency was not due to increased swimming speed (both GLP-1R and EGFP controls were approx. 23 cm/sec) nor stress effects (Table 4). Furthmore, the decreased latency was not due to a disruption in visual acuity and general locomotion and swimming ability, because rats from both groups located a visual platform in a similar manner (approx. 32±3 sec latency). […]
# rats [3] = assay: Morris Water Maze (MWM), spatial learning in rats; type: in vivo, rat; conditions: for acquisition of spatial learning: intranasal (arecoline s.c.), four trials
# Experimental: Spatial learning was assessed using the Morris Water Maze (Morris et al. Nature, 1982, 297: 681). Information was relayed via a tracker (HSV Image, Hampton, UK) to a personal computer, which was quantified by a specialized computer program (Water 2020, Hampton, UK). The acquisition study was performed as described previously. Animals were anaesthetized with isofluorane then administered peptide intra-nasally 20 min before testing. Rats were given four training trials. 48 h after training, a retention test was performed: rats were allowed to find the hidden platform for one trial. Mice initially had six trials without treatment to habituate them to the procedure. The following day, they were administered vehicle or [Ser(2)]exendin(1-9) (SEQ ID NO:1) and trained for an additional four trials with the platform in a new location. For a retention test, mice were given one trial to locate the platform the next day. Latency to find the platform was considered a measure of retention of spatial learning.
# as §1
# In another series of experiments, rats (N=15-16) were pretreated with either Gilatide (10 μg/kg, 30 μg/kg, or 60 μg/kg) or vehicle and then trained for four trials in a Morris Water Maze. Two days following training, the rats were retested. Latency to find a submerged platform in the Morris Water Maze paradigm was measured.
# Clinically approved treatments for cognitive impairment act primarily on the cholinergic system. The effects of intranasal GLP-1 and [Ser(2)]exendin(1-9) were compared with that of the cholinergic agonist arecoline on spatial learning in a modified version of the MWM (Setlow, B. et al. Learn. Mem, 2000. 7: 187). Rats were first administered vehicle, [Ser(2)]exendin(1-9), GLP-1 or arecoline, and trained for four trials to locate a submerged platform. They were then tested in a single retention trial 48 hours after initial training. There were no differences between treatments in acquisition (FIG. 10A).
# rats [4] = assay: Passive avoidance (PA), associative learning in rats; type: in vivo, rat
# Experimental: Passive avoidance was performed in an apparatus (MED Associates Inc., St. Albans, Vt.) consisting of one dark chamber and one light chamber that can be divided by a guillotine door. The training procedure was executed as previously described (N. Venable et al. Psychopharmacology 100, 215 (1990)). Rats were administered a 1.0 mA shock for 3 sec, mice a 0.5 mA shock for 5 sec. Retention tests were performed either at 1, 3 or 7 days post-pairing. Maximum latency was 600 sec for rats, 300 sec for mice.
# In the instant invention, rats were pretreated intranasally with one of three dose levels (10 μg/kg, 30 μg/kg, or 60 μg/kg) of Gilatide in 5% β cyclodextrin or an octamer having a sequence homology to CRH and urocortin. […] A control group received vehicle (5% cyclodextrin) alone. With three dose levels for each of the peptides studied, a total of seven (7) groups were employed, each group having 5-8 rats, for a total of 50 rats tested. On the first day of conditioning, the pretreated rats (N=7-13) were administered a single foot shock trial (0.1 mA over 3 seconds) after entering the dark compartment. The animals were replaced in the test apparatus and latencies again were measured on Days 1, 3, 7, and 21 following the aversive stimulus.
# Rats were pretreated with either […] 10 μg/kg Gilatide in 5% β cyclodextrin or vehicle by one of three routes of administration: intranasally, subcutaneously, or intraperitoneally. On Day 0, the rats (N=7-13) were conditioned by administration of a single foot shock trial (0.1 mA over 3 seconds) after entry into the dark compartment of a passive avoidance apparatus (the same passive avoidance chamber used in the first series of experiments). At 24 hours (Day 1) following the initial test, and delivery of the single shock, the animals were replaced in the test apparatus and latency again measured. (FIG. 7)
# Rates (N=5-10) were pretreated intranasally with one of five dose levels (0.1 μg/kg, 1 μg/kg, 3 μg/kg, 30 μg/kg or 60 μg/kg) of Gilatide in 5% β cyclodextrin, vehicle (5% cyclodextrin), or Nicotine (0.3 mg/kg, subcutaneously). On Day 0, the rats were conditioned by administration of a single foot shock trial (0.1 mA over 3 seconds) after entry into the dark compartment of a passive avoidance apparatus (the same passive avoidance chamber used in the other experiments). The preconditioned rats were retested on Days 1, 3, 7, and 21.
# The effect of Gilatide was tested on memory consolidation by administering the peptide after shock testing. Rats (N=7-13) were preconditioned by administering a single foot shock trial (0.1 mA over 3 seconds) after entering the dark compartment of a passive avoidance apparatus. Twenty (20) minutes after the conditioning session, one group of rats was administered 10 μg/kg of Gilatide intranasally (TRN-TXT). Another group of rats (TXT-DLY-TRN) was administered this same dose of Gilatide 24 hours after the conditioning session. Both treatment groups were returned to the test apparatus 24 hours following treatment and latencies were again measured. […] (FIG. 13)
# The effects of Gilatide when used with or without an Exendin-4 antagonist were observed and measured. Rats (N=6-13) were pretreated with either 10 μg/kg or 20 μg/kg of Gilatide with or without an Exendin-4 antagonist (10 μg/kg). A control group was administered vehicle alone. The pretreated rats were conditioned on Day 0 by administration of a single foot shock trial (0.1 mA over 3 seconds) after entry into the dark compartment of a passive avoidance apparatus (the same passive avoidance chamber used in the other experiments). The preconditioned rats were retested on 24 hours later. […] (FIG. 14)
# Twenty-four hours later the rats were returned to the apparatus and retested. […] (FIG. 15)
# [5] = Blood glucose in fasting rats; type: in vivo, rat; conditions: 24 hour fasting rats, 100 ug intraperitoneal; for Blood glucose mean ± s.e.m.: 20 minutes after administration
# Experimental: Gilatide administered intraperitoneally (IP), but not intranasally (IN), lowers blood glucose levels in rats fasted for 24 hours. […] Gilatide's effect on blood glucose in fasting rats was measured. Groups of 24 hour fasting rats (n=5 or 6) were delivered either vehicle, insulin, Gilatide, GLP-1, exendin-4, Insulin A-chain, Insulin B-chain or C-peptide. Glucose levels were measured 20 minutes following intraperitoneal administration. All peptides were given at a dose of 100 ug (Table 2). In this experiment, insulin, the positive control, led to a 44% drop in blood glucose. Gilatide led to a significant drop in glucose level by 14%.
# [6] = system: rat insulinoma cell line expressing the GLP-1R (RINm5f); assay: ELISA of culture media for insulin, RINm5f cells; type: cell-based; conditions: 10 nM peptide, 6 hours
# Experimental: To confirm biologic activity of Gilatide peptides or analogs, a rat insulinoma cell line expressing the GLP-1R (RINm5f) can be cultured and incubated the Gilatide peptide or analogs followed by an ELISA study as described below.
# To confirm biological activity of synthesized Gilatide peptide ([Ser(2)]exendin(1-9)) that was synthesized with a stearic acid residue added to the N-terminus, GLP-1 or [Ser(2)]exendin(1-9) (10 nM) were incubated with the cultured rat insulinoma cell line expressing the GLP-1R (RINm5f) in the presence or absence of the GLP-1R antagonist, exendin(9-39) (10 nM). Rat insulinoma cells (RINm5f) were cultured in 24 well plates and incubated in serum-free medium for 1 hour before treatment. The GLP-1 peptide antagonist exendin (9-39) (10 nM) was added 1 hour prior to GLP-1 (7-36) or [Ser(2)]exendin(1-9) (10 nM). Cells were then incubated for 6 hours in the presence of either GLP-1 or [Ser(2)]exendin(1-9). Media were then removed and assayed for insulin concentrations via ELISA (Pennisula Labs, San Carlos, Calif.).
# rats [7] = assay: Elevated plus maze test (anxiogenic effects); type: in vivo, rat; parameters: TIME Open Arm / TIME Closed Arm: unit not given here; conditions: 10 ng ICV
# [8] = Blood glucose in fasting rats; type: in vivo, rat; conditions: for blood glucose: intra-nasal
# [9] = i.c.v., GLP-1 10 ng and 100 ng, [Ser(2)]exendin(1-9) 10 ng
molecule,measurement,setting,value
Cc1ncc2n1-c1ccc(Cl)cc1C(c1ccccc1F)=NC2 [Midazolam],ENTRIES Closed Arm,rats [1]; 1.5 mg/kg IP,5.1 ± 0.5
same,ENTRIES Open Arm,rats [1]; 1.5 mg/kg IP,6.6 ± 0.7
same,TIME Closed Arm,rats [1]; 1.5 mg/kg IP,89.2 ± 15
same,TIME Open Arm,rats [1]; 1.5 mg/kg IP,141.3 ± 18
COC(=O)C1=CCCN(C)C1 [arecoline],freezing behavior in contextual fear conditioning,rats [2],enhanced freezing behavior
same,latency to locate the submerged platform in the retention trial,"rats [3]; modified MWM, 48 hours after training, [Ser(2)]exendin(1-9) 30 μg intranasal, arecoline 0.3 mg s.c.",significantly reduced the latency
same,acquisition of spatial learning,rats [3]; modified MWM,did not affect acquisition of spatial learning
COc1cccc(-c2cc(=O)c3ccccc3o2)c1N [PD98059],effect on enhancement of associative learning by intranasal [Ser(2)]exendin(1-9),rats [4]; PD98059 5 μg i.c.v. before (PRE) training,not when given before (PRE) training
same,effect on enhancement of associative learning by intranasal [Ser(2)]exendin(1-9),rats [4]; PD98059 5 μg i.c.v. immediately after training (POST),completely blocked
Insulin B chain: inactive insulin fragment,Blood glucose mean ± s.e.m.,[5],100 ± 4.9 mg/dL
"HAEGTFTSDVSSVLEGQAAKEFIAWLVKGR [GLP-1, glucagon-like peptide 1]",ENTRIES Closed Arm,rats [1]; 10 μg IN,4.8 ± 1.0
same,ENTRIES Open Arm,rats [1]; 10 μg IN,1.11 ± 0.3
same,TIME Closed Arm,rats [1]; 10 μg IN,171.8 ± 10^+
same,TIME Open Arm,rats [1]; 10 μg IN,11.6 ± 4
same,ENTRIES Closed Arm,rats [1]; 30 μg IN,2.1 ± 0.4
same,ENTRIES Open Arm,rats [1]; 30 μg IN,1.33 ± 0.4
same,TIME Closed Arm,rats [1]; 30 μg IN,197.2 ± 18
same,TIME Open Arm,rats [1]; 30 μg IN,22.1 ± 10
same,"anxiogenic effect, time spent in closed arms",rats [1]; intranasal,anxiogenic
same,Blood glucose mean ± s.e.m.,[5],89.5 ± 1.1 mg/dL
same,insulin release into culture media,[6],stimulated insulin release
same,latency (not shown),rats [3]; 100 ng i.c.v.,decrease latency
same,distance traveled to locate the platform,"rats [3]; i.c.v., vs control rats",significantly reduced distance traveled
same,swimming speed,"rats [3]; i.c.v., vs vehicle",decrease swimming speed
same,acquisition of spatial learning,rats [3]; modified MWM,did not affect acquisition of spatial learning
same,latency in PA,rats [4]; [9],enhanced latency
same,ENTRIES Closed Arm,rats [7],2.7 ± 0.5
same,ENTRIES Open Arm,rats [7],0.7 ± 0.4
same,TIME Closed Arm,rats [7],198.3 ± 29
same,TIME Open Arm,rats [7],16.7 ± 11
same,blood glucose,[8]; 3 μg,73.8 ± 2.2 P < 0.05 mg/dl
same,blood glucose,[8]; 10 μg,70.6 ± 2.5 P < 0.01 mg/dl
same,blood glucose,[8]; 30 μg,71.2 ± 2.1 P < 0.05 mg/dl
same,fasting blood glucose levels,[8]; intranasal,lowered fasting blood glucose levels
C1CCc2nnnn2CC1 [PTZ],ENTRIES Closed Arm,rats [1]; 20 mg/kg IP,1.6 ± 0.4
same,ENTRIES Open Arm,rats [1]; 20 mg/kg IP,0***
same,TIME Closed Arm,rats [1]; 20 mg/kg IP,249.6 ± 13.32
same,TIME Open Arm,rats [1]; 20 mg/kg IP,0***
Insulin,drop in blood glucose,[5]; 20 minutes,44%
same,Blood glucose mean ± s.e.m.,[5],50.7 ± 8.2 (P < 0.01) mg/dl
C peptide,Blood glucose mean ± s.e.m.,[5],90.3 ± 8.9 mg/dL
Insulin A chain: inactive insulin fragment,Blood glucose mean ± s.e.m.,[5],90.3 ± 4.7 mg/dL
CN1CCCC1c1cccnc1 (stereo not drawn) [nicotine],latency in PA,"rats [4]; 0.3 mg/kg subcutaneously, 24 hours",modestly increased latencies
NC(=O)CC[C@@H]1NC(=O)[C@H](Cc2ccccc2)NC(=O)[C@H](Cc2ccc(O)cc2)NC(=O)[C@@H](N)CSSC[C@@H](C(=O)N2CCC[C@H]2C(=O)N[C@@H](CCCN=C(N)N)C(=O)NCC(N)=O)NC(=O)[C@H](CC(N)=O)NC1=O [vasopressin],latency in PA,rats [4]; [9],enhanced latency
same,latency in the PA test,"rats [4]; intranasal, [Ser(2)]exendin(1-9) 3, 10, 30 μg, vasopressin 0.3 μg (FIG. 9A)",increased latency
